# Values of other authors, collected in the PKSmart pharmacokinetics tables (Seal et al. 2025).
# Assay: Lombardo, Berellini, Obach 2018, Drug Metab Dispos 46:1466, doi 10.1124/dmd.118.082966
# Details: human; for MRT / Vd / clearance / half-life: in vivo, iv; for fraction unbound: plasma
SMILES,MRT [h],Vd [L/kg],clearance [mL/min/kg],half-life [h],fraction unbound
CN[C@@H]1CCc2[nH]c3ccc(C(N)=O)cc3c2C1,22,3.6,2.5,24,
CCCc1nn(C)c2c(=O)[nH]c(-c3cc(S(=O)(=O)N4CCN(C)CC4)ccc3OCC)nc12,2.5,1.36,,2.2,
CCOC(=O)[C@]1(c2ccccc2)CCC=C[C@H]1NC,4.2,2.5,9.9,4.4,
CC1(C)S[C@@H]2C(NC(=O)C(NC(=O)NC(=N)N)c3ccccc3)C(=O)N2C1C(=O)O (some centres not stated),2.5,0.24,1.6,2.09,0.8
COc1cc(OC)c(C(=O)CCCN2CCCC2)c(OC)c1,3.9,1.3,5.6,3.3,
CO[C@@]1(NC(=O)C(C(=O)O)c2ccsc2)C(=O)N2C(C(=O)O)C(C)(C)S[C@@H]21 (some centres not stated),5.2,0.11,0.34,4.1,0.21
N#Cc1ccc(Cn2cncc2CN2CCN(c3cccc(Cl)c3)C(=O)C2)cc1,4.2,0.8,3.2,2.6,
Nc1nc2c(ncn2COC(CO)CO)c(=O)[nH]1,3.7,1,4.6,3.7,
Nc1n[n+]([O-])c2ccccc2[n+]1[O-],,,,,0.81
CCOP(=O)(OCC)C(C)NC(=O)N(CCCl)N=O (configuration not stated),0.55,0.62,18.5,0.38,
CO[C@H]1C[C@@H](O[C@@H]2C(C)C(=O)O[C@H](C)[C@H](C)[C@H](O)C(C)C(=O)[C@@]3(CO3)C[C@H](C)[C@H](O[C@H]3O[C@@H](C)C[C@@H](N(C)C)[C@H]3O)[C@H]2C)O[C@@H](C)[C@@H]1O (some centres not stated),1.41,0.77,9.1,1.05,0.4
COc1c2occc2cc2ccc(=O)oc12,0.88,0.61,,,0.09
Cc1cccc(C)c1NC(=O)C1CCCCN1C (configuration not stated),2.5,0.95,6.8,2,0.3
CN(C)[C@@H](c1cccc(O)c1)[C@H]1CCCC[C@H]1O,,,2.2,3.85,
CCCN(CCC)CCc1cccc2[nH]c(O)cc12,4.3,7.7,30,6,0.6
COc1ccc(-n2nc(C(N)=O)c3c2C(=O)N(c2ccc(N4CCCCC4=O)cc2)CC3)cc1,,0.3,0.8,12,
CN1C[C@@H]2c3ccccc3Oc3ccc(Cl)cc3[C@H]2C1,30.9,23,12.4,,
Clc1ccc2nsnc2c1NC1=NCCN1,3.6,2.4,11,2.4,
CCC(=O)OCC(=O)[C@@]1(OC(=O)CC)[C@@H](C)C[C@H]2[C@@H]3CC=C4CC(=O)C=C[C@]4(C)[C@@]3(Cl)[C@@H](O)C[C@@]21C,0.1,0.29,36,0.5,0.13
C=Cc1c(C)c2[nH]c1=Cc1[nH]c(c(=CCC(=O)OC)c1C)=Cc1[nH]c(c(C)c1CCC(=O)O)C=C1NC(=C3C=CC(C(=O)OC)=C(C(=O)OC)[C@@]13C)C=2,4.9,0.51,1.73,6.06,
COc1cccc2c1C(=O)c1c(O)c3c(c(O)c1C2=O)C[C@@](O)(C(=O)CO)C[C@@H]3O[C@@H]1C[C@H](N)[C@H](O[C@@H]2CCCCO2)[C@H](C)O1,12.5,43.2,57.7,11.1,
OCc1cc([C@@H](O)CNCCCCCCOCCOCc2c(Cl)cccc2Cl)ccc1O,1.53,2.38,25.7,2.4,0.06
CCCCC(=O)N(Cc1ccc(-c2ccccc2-c2nnn[nH]2)cc1)C(C(=O)O)C(C)C (configuration not stated),7.5,0.22,0.49,9.5,0.04
Cc1nnc(SCC2=C(C(=O)O)N3C(=O)C(NC(=O)C(O)c4ccccc4)[C@H]3SC2)s1 (some centres not stated),0.83,0.13,2.6,1,
CC[C@@]1(O)C(=O)OCc2c1cc1n(c2=O)Cc2c-1nc1ccccc1c2CC[Si](C)(C)C,13.3,3.26,4.2,13.2,

SMILES,MRT [h],Vd [L/kg],clearance [mL/min/kg],half-life [h],fraction unbound
C[N+]1(CC2CC2)CC[C@]23c4c5ccc([O-])c4OC2C(=O)CC[C@@]3(O)[C@H]1C5 (some centres not stated),,,,,0.87
N=C(N)c1ccc(C(=O)NC(Cc2ccc(O)cc2)C(=O)N2CCC(OCC(=O)O)CC2)cc1 (configuration not stated),2.5,0.29,,2.1,0.94
CC(C)COC[C@@H](CN(Cc1ccccc1)c1ccccc1)N1CCCC1,19.3,10.1,8.7,14.9,0.001
COc1ccc(CCN(C)CCCN2Cc3cc(OC)c(OC)cc3C2=O)cc1OC,2.62,2.4,15.7,2.04,0.12
COc1cc2c(cc1OC)CC(=O)N(CCCN(C)C[C@H]1Cc3cc(OC)c(OC)cc31)CC2,2.69,1.66,10.3,,0.28
CNS(=O)(=O)CCc1ccc2[nH]cc(C3CCN(C)CC3)c2c1,6.1,2.4,6.6,6.6,
O=P(O)(O)OC(Cn1cncn1)(Cn1cncn1)c1ccc(F)cc1F,2,0.15,1.3,2.1,0.042
CCOC(=O)c1ccc(C#Cc2ccc3c(c2)C(C)(C)CCS3)nc1,1.56,3.55,37.2,6.22,
CC(C)C[C@H](NC(=O)CNC(=O)c1cc(Cl)ccc1Cl)B(O)O,119,3.61,0.5,97,0.01
O=c1[nH]c(=O)n(C2CCCO2)cc1F (configuration not stated),10.8,0.62,0.95,8.69,
Nc1c2c(nc3ccccc13)CCCC2,3.3,11,56,3.3,0.25
CCN(CC)CCCC(C)Nc1ccnc2cc(Cl)ccc12 (configuration not stated),740,140,4.1,570,
CC[C@@H]([C@H](C)O)n1ncn(-c2ccc(N3CCN(c4ccc(OC[C@H]5CO[C@@](Cn6cncn6)(c6ccc(F)cc6F)C5)cc4)CC3)cc2)c1=O,14.5,3.8,4.3,10.6,0.013
CC1(C)C(\C=C/C=C/C=C/C=C2\N(CCCCS(=O)(=O)O)c3ccc4ccccc4c3C2(C)C)=[N+](CCCCS(=O)(=O)[O-])c2ccc3ccccc3c21,0.086,0.035,6.8,0.065,0.05
CN1CCc2nc(C(=O)N[C@@H]3CC(C(=O)N(C)C)CC[C@@H]3NC(=O)C(=O)Nc3ccc(Cl)cn3)sc2C1 (some centres not stated),,,,,0.5
COc1ccsc1CNCC[C@@]1(c2ccccn2)CCOC2(CCCC2)C1,1.9,0.78,6.89,1.8,
CC1(C)S[C@@H]2C(NC(=O)C(NC(=O)N3CCNC3=O)c3ccccc3)C(=O)N2C1C(=O)O (some centres not stated),1.7,0.26,2.5,1.2,0.65
CC(C(=O)O)c1ccc(C(=O)c2cccs2)cc1 (configuration not stated),0.88,0.04,0.76,2.1,
COc1cc2c(cc1OC)C(Cc1cc(OC)c(OC)c(OC)c1)[N+](C)(CCCOC(=O)CC/C=C/CCC(=O)OCCC[N+]1(C)CCc3cc(OC)c(OC)cc3C1Cc1cc(OC)c(OC)c(OC)c1)CC2 (configuration not stated),0.87,0.27,5.2,0.83,0.7
COc1ccc(-c2nc3cc(C4=NNC(=O)CC4C)ccc3[nH]2)cc1 (configuration not stated),2.2,2,,1.8,0.024
CS(=O)(=O)OC[C@H](O)[C@@H](O)COS(C)(=O)=O,2,0.59,4.9,1.83,
CC(=O)N(CC[C@@](CCN1CCCCC1)(C(N)=O)c1ccccc1Cl)C(C)C,7.9,2.6,5.43,12,
CCN1C[C@H]2CN(C)C[C@@H](C1)C2OC(=O)c1ccc(Cl)cc1 (some centres not stated),8.8,9,17,8.6,
CN(C)CCCN1c2ccccc2CCc2cc(O)ccc21,12,6.6,9.2,10,0.36
CCCC(=O)Nc1ccc(OCC(O)CNC(C)C)c(C(C)=O)c1 (configuration not stated),2.8,1.7,,3.5,
